A melting point compilation (Tetko et al.; mined from patent text by program, amines drawn as free bases though some values may be those of a salt)

Row | melting point | SMILES
1 | 147 to 149 °C | COC(=O)COc1ccc2cc(-c3cnc(Cc4ccc5ccccc5c4)o3)ccc2c1
2 | 98 to 99.5 °C | C[C@@H](Oc1ccc(-c2ccccc2)cc1)[C@H](O)CCc1cccnc1
3 | 51 to 53 °C | CCC(=O)c1onc2ccccc12
4 | 219 °C | CC(C)(C)C(=O)N1CC=C(C#Cc2ccc3c(c2)NC(=O)CC(c2cccc(C#N)c2)=N3)CC1
5 | 176 to 178 °C | CCOC(=O)c1cnc2c(OC)cccc2c1Nc1cscc1OC
6 | 114 to 115 °C | CC(C)c1cc(CCCOc2ncccc2CC(=O)O)n(Cc2ccc(C(F)(F)F)cc2Cl)n1
7 | 161 to 163 °C | COc1ccc(-c2nc([N+](=O)[O-])n(C(=O)c3ccccc3)c2-c2ccc(OC)cc2)cc1
8 | 209 to 212 °C | O=C1CCC(c2ccc(Cl)cc2)c2ccccc2N1 (stereo not drawn)
9 | 188 °C | CC(C)(C)OC(=O)Nc1ccccc1NC(=O)c1nc2c(s1)CN(C(=O)OC(C)(C)C)CC2
10 | 116 to 118 °C | CCc1nc2c(n1Cc1ccc(OC)cc1)C(=O)N(C)CN2c1ccc(Cl)cc1Cl
11 | 209 to 210 °C | Cc1ccccc1NS(=O)(=O)c1ccc(N2CCNC2=O)cc1
12 | 155 to 156 °C | CC#CC(C)(C)NC(=O)C(COC)Oc1ccc2ccncc2c1 (stereo not drawn)
13 | 125 to 128 °C | CCCOc1ccc2cc(OCc3ccccc3)c(C(=O)O)cc2c1
14 | 225 to 226 °C | CC(C)NC(=O)c1c(NC(=O)c2cc(C(F)(F)F)nn2-c2ncccc2Cl)ccc2cccnc12
15 | 183 to 184 °C | Cc1ncc(C#N)c(Nc2ccc3[nH]ccc3c2C)c1-c1ccc(OCCN2CCN(C)CC2)cc1
16 | 80 to 82 °C | CCOC(=O)Cc1cc(Cl)cc(C(=O)c2ccccc2)c1N
17 | 213 to 215 °C | COCn1c(C)nc2c3c(c(C(=O)N(C)C)cc21)CCC(c1ccccc1)O3 (stereo not drawn)
18 | 145 °C | COc1ccc(C2CSc3ccccc3NC2=O)cc1 (stereo not drawn)
19 | 126 to 128 °C | CCNC(=O)Oc1ccc2cc(N3CC(COC)OC3=O)ccc2c1 (stereo not drawn)

Row | melting point | SMILES
20 | 91 to 92.5 °C | CC(C)(O)C(=O)Nc1ccc(Sc2ccccc2)cc1F
21 | 170 to 175 °C | CCc1nc2cc(C(N)=O)c(Cl)cc2n1-c1ccc(CCOC(=O)NS(=O)(=O)c2ccc(C)cc2)cc1
22 | 99 to 100 °C | CN(Cc1ccccc1)C(=O)CCc1nc(-c2ccc(Cl)cc2)co1
23 | 184 to 186 °C | O=C(O)c1cccc(-c2ccc(CNC(=O)c3cccnc3Oc3ccc(F)cc3)cc2)c1
24 | 147 to 148 °C | CCCc1nn(-c2ccc(C(F)(F)F)cn2)cc1CCCCOc1cc(CC(=O)O)ccc1OC
25 | 134 to 135 °C | COCc1c(C(=O)OC)ncc2[nH]c3ccccc3c12
26 | 198 to 200 °C | COc1ccc(-c2[nH]c(-c3cccc4ccccc34)nc2C(=O)Nc2nccs2)cc1
27 | 200 to 203 °C | COc1ccc(NC(=O)c2cccnc2)c2c1oc1ccccc12
28 | 93 °C | CCCCCCCC(=O)N(C)Cc1ccc(OCc2ccccc2)c(-c2ccc(C=C3SC(=O)NC3=O)cc2)c1
29 | 177 to 178 °C | CCOC(=O)/C=C/c1cn(-c2ccccc2)nc1OCc1ccc(OCc2nc(-c3ccco3)oc2C)c(OC)c1
30 | 178 to 180 °C | Cc1c(Cl)cccc1Nc1ncccc1C(=O)OC1OC(=O)c2ccccc21 (stereo not drawn)
31 | 264 to 266 °C | c1ccc(-c2nnc3cc(-c4ccsc4)c(OCc4ncn[nH]4)nn23)cc1
32 | 59 to 61 °C | Cn1c(Oc2ccc(N=C=S)cc2)nc2ccccc21
33 | 123 to 128 °C | COc1cccc(N(CCN2CCC(C(=O)c3ccc(F)cc3)CC2)C(=O)c2ccc(NC(N)=O)cc2)c1
34 | 194 to 196 °C | CC(=O)N1CCC(C(=O)Nc2ccccc2Oc2ccc(Cl)cc2Cl)CC1
35 | 138 to 143 °C | O=c1[nH]ncc2[nH]c(-c3ccc(OC(F)F)c(OC4CC4)c3)c(-c3ccccc3)c12
36 | 142 to 144 °C | CC(C)(C)c1ccc(C(O)CCCN2CCC(C3(O)c4ccccc4CCc4ccccc43)CC2)cc1 (stereo not drawn)
37 | 212 °C | Cc1nccc2c1[nH]c1cc(OCc3ccccc3)ccc12
38 | 129 to 131 °C | Ic1ccc(SSc2ccc(I)c3ccccc23)c2ccccc12

The next lines start with the compound.

Row | SMILES | melting point
39 | Oc1ccc2c(c1-c1ccccc1)CCCC=C2c1ccc(OCCCCCSc2ccc(C(F)(F)F)cc2)cc1 | 189 °C
40 | CCC1SCCCN1C(=S)Nc1cccc(Br)c1 (stereo not drawn) | 77 to 79 °C
41 | CC(C)N=C(NC(C)C)ON=C1CCCCC1 | 45 to 48 °C
42 | N#Cc1ccc2cc(C(N)=O)[nH]c2c1 | 241 to 242 °C
43 | N#CCc1cc(I)cc(Cc2nc3c(F)c(F)cc(F)c3s2)c1 | 127 to 130 °C
44 | CCCCCCCCOc1ccc(-c2ncc(Br)cn2)cc1 | 95 °C
45 | Cc1[nH]c(S(C)(=O)=O)nc1-c1cc(C(C)(C)C)c(O)c(C(C)(C)C)c1 | 235 to 237 °C
46 | CCCCOCCOc1ccc(-c2ccc3c(c2)C=C(C(=O)O)CCN3S(C)(=O)=O)cc1 | 208 to 210 °C
47 | Cc1nc(CC(=O)NCc2cccc3c2C(=O)N(C2CCC(=O)NC2=O)C3=O)c(C)s1 (stereo not drawn) | 140 to 142 °C
48 | CCOC(=O)c1nc2ccc([N+](=O)[O-])cc2c(=O)[nH]1 | 227 to 228 °C
49 | CCOC(=O)Cc1sc(Sc2nccc(C)c2C(=O)O)nc1C | 169 to 171 °C
50 | O=[N+]([O-])C1=C2N(Cc3ccc(Cl)nc3)CCCN2C2CCC1O2 (stereo not drawn) | 143 to 145 °C
51 | CSc1nc(Cl)cc2nncn12 | 164 to 165 °C
52 | CN(C=O)C1CCC(=O)c2ccccc21 (single isomer, unassigned; (+)) | 92 to 93 °C
53 | Cc1cc2c3c(c1)C(=O)C(=O)N3CCC2 | 188 °C
54 | CC1(C)C(=O)Nc2cc3c(cc21)OC(O)N3 (stereo not drawn) | 297 to 299 °C
55 | CC(C)[C@@H]1CC[C@@H](C)C[C@H]1C(=O)Nc1ccc(CC#N)cc1 | 146 to 150 °C
56 | CCc1cccc(CC)c1NC(=O)CCSc1cc(C(C)(C)C)c(O)c(C(C)(C)C)c1 | 150 to 152 °C
57 | COc1ccc(Nc2nc(N)nc3c2ncn3C2CC(F)C(CO)O2)cc1 (stereo not drawn) | 190 to 191 °C
58 | Cc1noc(-c2ncn3c2[C@@H]2CCCN2C(=O)c2c(Br)cccc2-3)n1 | 237 to 238 °C
59 | Cn1nc(-c2cccc(N3Cc4cc(C(C)(C)C)ccc4C3=O)c2CO)cc(Nc2ccn(C3CNC3)n2)c1=O | 202 to 204 °C
60 | O=[N+]([O-])c1ccc2c(c1)CCC(COC1CCCCO1)O2 (stereo not drawn) | 66.4 °C
61 | CC(C)C(NC(=O)c1ccc(C(=O)NCC(=O)O)cc1)C(=O)N(CC(=O)NC(C(=O)C(F)(F)F)C(C)C)C1Cc2ccccc2C1 (mixture of isomers) | 88 to 91 °C
62 | CSC(=C[N+](=O)[O-])NCCCCc1c[nH]cn1 | 157 to 158 °C
63 | CCOC(=S)C(C)Cc1ccc(OCC(=O)O)cc1 (stereo not drawn) | 77 to 78 °C
64 | O=C1CCC(N2Cc3c(OCc4ccc(CN5CCN(S(=O)(=O)C6CC6)CC5)cc4)cccc3C2=O)C(=O)N1 (stereo not drawn) | 145 to 147 °C
65 | c1csc(Cn2ccnc2C2=NCCN2)c1 | 101 to 103 °C
66 | Cc1ccc(C)c(SCCCC(=O)O)c1 | 61 to 62 °C
67 | CC[Si](CC)(c1ccc(N(c2ccccc2)c2ccccc2)cc1)c1ccc(N(c2ccccc2)c2ccccc2)cc1 | 154 to 155 °C
68 | O=c1[nH]c(-c2cc(C(F)(F)F)cc(C(F)(F)F)c2)nn1-c1cc(Cl)ccc1O | 235 to 236 °C
